Laboratory results as given in PubChem BioAssay (NCI).
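48-hour exposure; five concentrations; linearly interpolated endpoints. The concentration for 50% growth inhibition is given as GI50. Definition used: TGI = concentration required for complete inhibition of growth.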

How the values were obtained:
Assay in all cases: DTP human tumour cell line panel, 48 h; in the data active means GI50 below about 0.43 µM; inactive means the rest
HCT-15 colon = tested on: HCT-15 colon
HT29 colon = tested on: HT29 colon
MOLT-4 leukemia = tested on: MOLT-4 leukemia
NCI-H226 lung = tested on: NCI-H226 lung
NCI-H23 lung = tested on: NCI-H23 lung
786-0 renal = tested on: 786-0 renal
SW-620 colon = tested on: SW-620 colon
PC-3 prostate = tested on: PC-3 prostate
DU-145 prostate = tested on: DU-145 prostate
KM12 colon = tested on: KM12 colon
NCI-H522 lung = tested on: NCI-H522 lung
HCT-116 colon = tested on: HCT-116 colon
HS 578T breast = tested on: HS 578T breast
SK-MEL-2 melanoma = tested on: SK-MEL-2 melanoma
MDA-MB-231 breast = tested on: MDA-MB-231 breast
SF-539 CNS = tested on: SF-539 CNS
OVCAR-3 ovarian = tested on: OVCAR-3 ovarian
CCRF-CEM leukemia = tested on: CCRF-CEM leukemia
A549 NSCLC = tested on: A549 NSCLC
HL-60(TB) leukemia = tested on: HL-60(TB) leukemia
ACHN renal = tested on: ACHN renal
MCF7 breast = tested on: MCF7 breast
UO-31 renal = tested on: UO-31 renal
EKVX NSCLC = tested on: EKVX NSCLC
IGROV1 ovarian = tested on: IGROV1 ovarian
MDA-MB-435 = tested on: MDA-MB-435
U251 CNS = tested on: U251 CNS
T-47D breast = tested on: T-47D breast
OVCAR-4 ovarian = tested on: OVCAR-4 ovarian
SF-295 CNS = tested on: SF-295 CNS
COLO 205 colon = tested on: COLO 205 colon
MALME-3M melanoma = tested on: MALME-3M melanoma
OVCAR-5 ovarian = tested on: OVCAR-5 ovarian
NCI-H460 lung = tested on: NCI-H460 lung
HOP-62 NSCLC = tested on: HOP-62 NSCLC
HOP-92 NSCLC = tested on: HOP-92 NSCLC
SNB-19 CNS = tested on: SNB-19 CNS
A498 renal = tested on: A498 renal
NCI/ADR-RES ovarian = tested on: NCI/ADR-RES ovarian
SF-268 CNS = tested on: SF-268 CNS
CAKI-1 renal = tested on: CAKI-1 renal
SNB-75 CNS = tested on: SNB-75 CNS
M14 melanoma = tested on: M14 melanoma
SR leukemia = tested on: SR leukemia
SN12C renal = tested on: SN12C renal
HCC-2998 colon = tested on: HCC-2998 colon
SK-OV-3 ovarian = tested on: SK-OV-3 ovarian
RPMI-8226 leukemia = tested on: RPMI-8226 leukemia
SK-MEL-5 melanoma = tested on: SK-MEL-5 melanoma
UACC-62 melanoma = tested on: UACC-62 melanoma
SK-MEL-28 melanoma = tested on: SK-MEL-28 melanoma
LOX IMVI melanoma = tested on: LOX IMVI melanoma
TK-10 renal = tested on: TK-10 renal
K-562 leukemia = tested on: K-562 leukemia
UACC-257 melanoma = tested on: UACC-257 melanoma
OVCAR-8 ovarian = tested on: OVCAR-8 ovarian
RXF 393 renal = tested on: RXF 393 renal
BT-549 breast = tested on: BT-549 breast

CSc1ccc(C2=NN(c3ccccc3)C(c3ccc(-c4cc(Cl)c(Cl)cc4Cl)o3)C2)cc1 (stereo not drawn)
52.1 µM: TGI (HOP-92 NSCLC)
85.7 µM: TGI (SNB-75 CNS)
> 100 µM: TGI (HCT-15 colon) | TGI (HT29 colon) | TGI (MOLT-4 leukemia) | TGI (NCI-H226 lung) | TGI (NCI-H23 lung) | TGI (786-0 renal) | TGI (SW-620 colon) | TGI (PC-3 prostate) | TGI (DU-145 prostate) | TGI (KM12 colon) | TGI (NCI-H522 lung) | TGI (HCT-116 colon) | TGI (HS 578T breast) | TGI (SK-MEL-2 melanoma) | TGI (MDA-MB-231 breast) | TGI (SF-539 CNS) | TGI (OVCAR-3 ovarian) | TGI (CCRF-CEM leukemia) | TGI (A549 NSCLC) | TGI (HL-60(TB) leukemia) | TGI (ACHN renal) | TGI (MCF7 breast) | TGI (UO-31 renal) | TGI (EKVX NSCLC) | TGI (IGROV1 ovarian) | TGI (MDA-MB-435) | TGI (U251 CNS) | TGI (T-47D breast) | TGI (OVCAR-4 ovarian) | TGI (SF-295 CNS) | TGI (COLO 205 colon) | TGI (MALME-3M melanoma) | TGI (OVCAR-5 ovarian) | TGI (NCI-H460 lung) | TGI (HOP-62 NSCLC) | TGI (SNB-19 CNS) | TGI (A498 renal) | TGI (NCI/ADR-RES ovarian) | TGI (SF-268 CNS) | TGI (CAKI-1 renal) | TGI (M14 melanoma) | TGI (SR leukemia) | TGI (SN12C renal) | TGI (HCC-2998 colon) | TGI (SK-OV-3 ovarian) | TGI (RPMI-8226 leukemia) | TGI (SK-MEL-5 melanoma) | TGI (UACC-62 melanoma) | TGI (SK-MEL-28 melanoma) | TGI (LOX IMVI melanoma) | TGI (TK-10 renal) | TGI (K-562 leukemia)
inactive: GI50 (HCT-15 colon) > 100 µM | GI50 (HT29 colon) > 100 µM | GI50 (MOLT-4 leukemia) > 100 µM | GI50 (NCI-H226 lung) > 100 µM | GI50 (NCI-H23 lung) > 100 µM | GI50 (786-0 renal) > 100 µM | GI50 (SW-620 colon) > 100 µM | GI50 (PC-3 prostate) 63.1 µM | GI50 (DU-145 prostate) > 100 µM | GI50 (KM12 colon) > 100 µM | GI50 (NCI-H522 lung) > 100 µM | GI50 (HCT-116 colon) > 100 µM | GI50 (HS 578T breast) 46.3 µM | GI50 (SK-MEL-2 melanoma) > 100 µM | GI50 (MDA-MB-231 breast) > 100 µM | GI50 (SF-539 CNS) 63.2 µM | GI50 (OVCAR-3 ovarian) > 100 µM | GI50 (CCRF-CEM leukemia) > 100 µM | GI50 (A549 NSCLC) > 100 µM | GI50 (HL-60(TB) leukemia) > 100 µM | GI50 (ACHN renal) > 100 µM | GI50 (MCF7 breast) > 100 µM | GI50 (UO-31 renal) > 100 µM | GI50 (EKVX NSCLC) > 100 µM | GI50 (IGROV1 ovarian) > 100 µM | GI50 (MDA-MB-435) > 100 µM | GI50 (U251 CNS) 89.2 µM | GI50 (T-47D breast) > 100 µM | GI50 (OVCAR-4 ovarian) > 100 µM | GI50 (SF-295 CNS) 54.7 µM | GI50 (COLO 205 colon) > 100 µM | GI50 (MALME-3M melanoma) > 100 µM | GI50 (OVCAR-5 ovarian) > 100 µM | GI50 (NCI-H460 lung) 89.3 µM | GI50 (HOP-62 NSCLC) 12.3 µM | GI50 (HOP-92 NSCLC) 21 µM | GI50 (SNB-19 CNS) 64.3 µM | GI50 (A498 renal) > 100 µM | GI50 (NCI/ADR-RES ovarian) > 100 µM | GI50 (SF-268 CNS) 87.1 µM | GI50 (CAKI-1 renal) > 100 µM | GI50 (SNB-75 CNS) 27.5 µM | GI50 (M14 melanoma) > 100 µM | GI50 (SR leukemia) > 100 µM | GI50 (SN12C renal) > 100 µM | GI50 (HCC-2998 colon) > 100 µM | GI50 (SK-OV-3 ovarian) 35.8 µM | GI50 (RPMI-8226 leukemia) > 100 µM | GI50 (SK-MEL-5 melanoma) > 100 µM | GI50 (UACC-62 melanoma) 78.8 µM | GI50 (SK-MEL-28 melanoma) > 100 µM | GI50 (LOX IMVI melanoma) > 100 µM | GI50 (TK-10 renal) > 100 µM | GI50 (K-562 leukemia) > 100 µM

CCOC(=O)c1ccc(N=C2S/C(=C\C(=S)Nc3ccccc3)N(c3ccccc3)C2=Nc2ccc(C(=O)OCC)cc2)cc1
82.6 µM: TGI (MALME-3M melanoma)
> 100 µM: TGI (HCT-15 colon) | TGI (HT29 colon) | TGI (MOLT-4 leukemia) | TGI (NCI-H226 lung) | TGI (NCI-H23 lung) | TGI (786-0 renal) | TGI (UACC-257 melanoma) | TGI (SW-620 colon) | TGI (PC-3 prostate) | TGI (KM12 colon) | TGI (HCT-116 colon) | TGI (HS 578T breast) | TGI (SK-MEL-2 melanoma) | TGI (MDA-MB-231 breast) | TGI (CCRF-CEM leukemia) | TGI (A549 NSCLC) | TGI (HL-60(TB) leukemia) | TGI (MCF7 breast) | TGI (UO-31 renal) | TGI (EKVX NSCLC) | TGI (IGROV1 ovarian) | TGI (OVCAR-8 ovarian) | TGI (RXF 393 renal) | TGI (COLO 205 colon) | TGI (HOP-62 NSCLC) | TGI (HOP-92 NSCLC) | TGI (SNB-19 CNS) | TGI (SNB-75 CNS) | TGI (M14 melanoma) | TGI (BT-549 breast) | TGI (SR leukemia) | TGI (SN12C renal) | TGI (HCC-2998 colon) | TGI (RPMI-8226 leukemia) | TGI (SK-MEL-5 melanoma) | TGI (UACC-62 melanoma) | TGI (SK-MEL-28 melanoma) | TGI (TK-10 renal) | TGI (K-562 leukemia)
